Test results from patent US20200163334A1, “INSECT REPELLENT” (FMC Corporation, priority 2016, published 2020).

Assays:
[1] = system: Red imported fire ant (Solenopsis invicta); test: Fire ant repellency, baited plates near mounds (Example 6); format: in vivo; details: separate trial; about 100 mg per plate, within 4 feet of mounds
Excerpt: Formulation A was poured into a plastic spray bottle and was sprayed onto 20, eight inch paper plates, one squeeze of the pump trigger per plate. […] Ten treated plates were placed randomly on the ground on a farm in Sparks, Ga., USA and ten control (untreated) plates were placed on the ground about 3 feet from the treated plates. Ten treated plates were placed about 4 feet from active Red imported fire ant mounds and ten control plates were placed near the same mounds no closer than 3 feet from the treated plates. Each plate received approximately 15 mL of an aqueous 25% honey solution.
Fifty percent of the control plates had active fire ant feeding within 15 minutes and 100% of the control plates had active fire ant feeding within 30 minutes.

insects = details: Table 1 of U.S. Pat. No. 6,958,146, 7,867,479 and 8,092,790; cited from earlier work
[2] = system: house flies (Musca domesticae); details: U.S. Pat. No. 6,958,146, 7,867,479 and 8,092,790; cited from earlier work

## COC(=O)c1ccccc1N [methyl anthranilate]
[1]
  deterrence of fire ant feeding: did not deter fire ants from feeding
insects
  insects on sticky traps: quickly became covered with hundreds of insects
[2]
  house fly response: repelled
